Measured values as given in patent US11980598B2, “N-(2-(substituted-naphth-1-yl)ethyl) substituted amide compound, preparation and uses thereof” (BEIJING GREATWAY PHARMACEUTICAL TECHNOLOGY CO., LTD., priority 2017, dated 2024).

Columns and labels:
[1] = target: human MT1 receptor membrane protein (Homo sapiens (Human), UniProt P48039); experiment: MT1 receptor binding test ([3H]-Melotonin competition)
Experimental: The receptors included a MT1/MT2 receptor and a 5-HT2C receptor. The test was divided into two parts: prescreening and rescreening. The results of prescreening were expressed as the percentage of binding, and the results of rescreening were expressed as the IC50 value (in M, i.e., mol/L).
(3) Tris-HCl buffer formulation: 50 mM Tris-HCl Buffer, 1 mM EDTA, 5 mM MgCl2, 0.1% NaN3, and then a certain proportion of PMSF was added to make pH 7.4.
(4) The example compound to be tested was dissolved in DMSO and formulated as a stock solution of 10^−2 M, and then diluted with distilled water to a concentration gradient of […]. The prescreening of the MT receptor binding test was performed at the concentration of 10^−5 M; the prescreening of the 5-HT2C receptor binding test was performed at the concentrations of 10^−5 and 10^−7 M.
The statistical analysis was performed using GraphPad Prism 5.0 software. The formula for receptor binding test was: inhibition (%)=[(total CPM of binding−CPM of tube with drug)/(total CPM of binding−non-specific CPM)]×100%, wherein CPM was count of a radioactive intensity.
10 μL of receptor membrane protein MT1 or MT2 was added to all the tubes. In non-specific binding tubes, 50 μL of a corresponding unlabeled ligand Ago at a concentration of 10^4 M was added to a final concentration of 10 μM, and pre-reacted for 30 minutes. In test tubes, 30 μL of test drug (MT1: a concentration of 10^4-10^−10 M, MT2: a concentration of […]) was added, respectively; all tubes were added with 40 μL [^3H]-Melotonin, respectively. […] The filter paper was taken out and dried by baking, and then placed in a scintillation bottle. 1 mL of the scintillation liquid was added, and the radioactive intensity was measured by a liquid scintillation counter.

SD rats = experiment: Anxiety behavior model of repeatedly administrated rat: Vogel drinking conflict test; assay type: in vivo; conditions: D18, within 3 minutes
Experimental: The requirements for test animals, drug formulation and administration were the same as those of the rat chronic mild stress model.
Instruments: Vogel drinking anxiety device for rat and O-maze device for rat were manufactured by Shanghai XinRuan Company. The rat feeding chamber was a home-made white plastic box (60×45×25 cm).
The rats were administrated continuously by i.g. once a day. A novelty-suppressed feeding test, a Vogel drinking conflict test, and an O-maze test were performed on a different day, respectively. Each behavior test was performed at 9:00-12:00, and the administration time was 16:00-17:00. The test process was as follows: D12, novelty-suppressed feeding test (animals were fasted for 48 hours before the test); D18, Vogel drinking conflict test (animals were banned from water for 48 hours before the test); D21, O-maze test.
The Vogel drinking anxiety device for rat connected a drinking tube of a water bottle, an electric grid and a current loop of a controller through the animal body when rat drank water. The controller can automatically record the number of times the animal drank water and can deliver an electric shock to foot sole. The rat was individually placed in the test chamber after 48 hours of water deprivation. When the animal drank 20 times in the test chamber, the controller started timing for 3 minutes, and every 20 times the rat drank, one electric shock to foot sole was delivered (0.35 mA for 2 s). The device automatically recorded the number of times the rat drank water with electric shock within 3 minutes.

[2] = cited from earlier work
[3] = background statement; cited from earlier work
CYP1A2 = CYP1A2 (Homo sapiens (Human), UniProt P05177); conditions: cited from earlier work
Chain of CYP1A2 (P05177 whole entry): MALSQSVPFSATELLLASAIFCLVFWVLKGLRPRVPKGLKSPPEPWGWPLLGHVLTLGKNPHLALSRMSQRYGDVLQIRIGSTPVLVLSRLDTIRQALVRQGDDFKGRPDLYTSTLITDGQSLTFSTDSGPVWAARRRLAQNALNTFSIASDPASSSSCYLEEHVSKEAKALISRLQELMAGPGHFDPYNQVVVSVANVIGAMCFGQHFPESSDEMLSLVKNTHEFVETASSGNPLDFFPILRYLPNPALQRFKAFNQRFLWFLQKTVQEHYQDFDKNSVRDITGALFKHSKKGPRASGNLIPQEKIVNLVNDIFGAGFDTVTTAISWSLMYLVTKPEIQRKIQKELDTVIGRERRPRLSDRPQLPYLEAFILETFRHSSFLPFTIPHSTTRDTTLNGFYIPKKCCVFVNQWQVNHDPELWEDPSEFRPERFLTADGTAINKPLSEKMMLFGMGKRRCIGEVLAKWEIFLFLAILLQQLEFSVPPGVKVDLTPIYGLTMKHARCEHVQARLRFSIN

Chain of human MT1 receptor membrane protein (P48039 whole entry): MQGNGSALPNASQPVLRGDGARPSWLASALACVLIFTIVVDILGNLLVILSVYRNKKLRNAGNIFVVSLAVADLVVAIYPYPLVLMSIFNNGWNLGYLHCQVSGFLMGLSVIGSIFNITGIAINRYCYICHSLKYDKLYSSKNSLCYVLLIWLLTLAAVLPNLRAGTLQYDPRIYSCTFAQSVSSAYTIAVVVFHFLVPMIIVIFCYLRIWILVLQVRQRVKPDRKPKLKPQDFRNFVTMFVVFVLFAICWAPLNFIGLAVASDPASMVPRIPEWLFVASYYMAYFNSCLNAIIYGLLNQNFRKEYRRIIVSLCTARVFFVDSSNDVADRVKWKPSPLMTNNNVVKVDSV

Row | SMILES | MT1 binding ratio (I %) ([1]; prescreening, 10^−5 M) [%] | IC50 ([1]; rescreening) [nM] | Number of times drinking water with electric shock (s) (SD rats; 5 mg/kg i.g. once a day) | Number of times drinking water with electric shock (s) (SD rats; 10 mg/kg i.g. once a day) | Number of times drinking water with electric shock (s) (SD rats; 20 mg/kg i.g. once a day) | Number of times drinking water with electric shock (s) (SD rats; 40 mg/kg i.g. once a day) | patients with an increase in ALT/AST (three times above the normal upper limit) [2] | absolute bioavailability [3] | oral absorption [3] | share metabolized by CYP1A2 (CYP1A2)
1 | [2H]C([2H])([2H])Oc1cc2c(CCNC(C)=O)cccc2cc1Cl [Example 1, N-(2-(6-chloro-7-deuteromethoxy-naphthalen-1-yl)ethyl)acetamide] | 84 | 0.45 ± 0.26 | 76 ± 11 number of licks (count) | 159 ± 14 number of licks (count) | 172 ± 25 number of licks (count) | 213 ± 20 number of licks (count) | – | – | – | –
2 | COc1ccc2cccc(CCNC(C)=O)c2c1 [Agomelatine, reference compound] | – | – | – | – | – | – | more than 1% | below 5% | over 80% | about 90%
